This note sets out measurements from ChEMBL document CHEMBL1201862, “PubChem BioAssay data set” (2004).

What all share (experiment): NCI-60 cell line screen, 48 h
The test system of assay [1] is EKVX.
Assay [2] deals with HCC 2998.
The subject of assay [3] is T47D.
The subject of assay [4] is M14.
In assay [5] the test system is HCT-116.
Assay [6] deals with MDA-MB-435.
The subject of assay [7] is NCI-H23.
Assay [8] has as its system SF-295.
Assay [9] concerns OVCAR-5.
In assay [10] the test system is 786-0.
Assay [11] concerns BT-549.
The test system of assay [12] is UACC-62.
In assay [13] the test system is A498.
The subject of assay [14] is UO-31.
Assay [15] concerns SW-620.
The test system of assay [16] is MOLT-4.
Assay [17] relates to K562.
Assay [18] relates to SK-MEL-28.
For assay [19], the system named is SNB-75.

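How tested: cells in 96-well plates exposed to compound for 48 hours at five concentrations. The concentration for 50% growth inhibition is given as GI50.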 The source made the active and inactive calls. Rule as the data show it: active = GI50 up to about 1.1 µM and inactive = higher. Bounds are passed on as bounds.

Consider `O=C(Cc1ccccc1CCO)NCCc1ccccc1`, for which the GI50 in assay [1], in assay [2], in assay [3], in assay [4], in [5] and in [6] was > 100 µM (inactive) throughout. In addition, the GI50 in assay [7], in assay [8], in assay [9], in [10], in assay [11] and in [12] was > 100 µM (inactive) in each case. Moreover, the GI50 in [13] was > 100 µM (inactive); in assay [14] it was 41.8 µM (inactive); in assay [15], > 100 µM (inactive); in assay [16], > 100 µM (inactive); in assay [17], > 100 µM (inactive); in [18] it was > 100 µM (inactive). In addition, the GI50 in assay [19] is > 100 µM (inactive).
As to `CC(=O)c1c2c(cc3c1CC1(C3)Cc3ccc4c(c3C1=O)CCC4)CCC2` (stereo not given), the GI50 is 7.13 µM (inactive) in assay [1]; 29.2 µM (inactive) in assay [2]; 9.73 µM (inactive) in [3]; 43 µM (inactive) in assay [4]; 10.8 µM (inactive) in assay [5]; 8.05 µM (inactive) in assay [6]. For the same compound, the GI50 in assay [7] is 34.9 µM (inactive); in [8] it was 93.3 µM (inactive); in assay [9], > 100 µM (inactive); in assay [10], > 100 µM (inactive); in assay [11], 62.4 µM (inactive); in assay [12], 44.5 µM (inactive). Also, the GI50 in [13] was > 100 µM (inactive); in assay [14], 55.5 µM (inactive); in assay [15], 32.7 µM (inactive); in [16] it was 22.3 µM (inactive); in assay [17] it was 6.58 µM (inactive); in assay [18], 57.1 µM (inactive). Besides, the GI50 in [19] is 16.9 µM (inactive).
In the case of `O=C1/C(=C/c2ccc(O)c(CN3CCCCC3)c2)CCC/C1=C\c1ccc(O)c(CN2CCCCC2)c1`, the GI50 was 8.85 µM (inactive) in assay [1]; 5.64 µM (inactive) in [2]; 17.5 µM (inactive) in assay [3]; 16.1 µM (inactive) in assay [4]; 2.4 µM (inactive) in [5]; 4.66 µM (inactive) in [6]. Besides, the GI50 in [7] is 5.52 µM (inactive); in assay [8] it was 3.25 µM (inactive); in assay [9] it was 29.6 µM (inactive); in assay [10] it was 3.52 µM (inactive); in [11], 10.4 µM (inactive); in assay [12], 16 µM (inactive). Also, the GI50 in assay [13] is 12.8 µM (inactive); in assay [14], 10.4 µM (inactive); in assay [15], 5.52 µM (inactive); in assay [16], 4 µM (inactive); in [17], 1.99 µM (inactive); in [18] it was 13.3 µM (inactive). In addition, the GI50 in assay [19] is 2.27 µM (inactive).
With `C=C(C)C1CC[C@@](C)(O)[C@H](C#N)C1` (stereo not given in full), the GI50 in assay [1], in [2], in [3], in assay [4], in assay [5] and in [6] was > 100 µM (inactive) throughout. In addition, the GI50 in [7], in assay [8], in assay [9], in [10], in assay [11] and in assay [12] was > 100 µM (inactive) in each case. Further, the GI50 in assay [13], in [14], in [15], in assay [16], in [17] and in assay [18] was > 100 µM (inactive) in each case. Besides, the GI50 in assay [19] is 44.5 µM (inactive).
In the case of `CC(C)(C)C1=CC(=C2C=Cc3ccccc3O2)C=C(C(C)(C)C)C1=O`, the GI50 is 6.59 µM (inactive) in assay [1]; 1.61 µM (inactive) in [2]; 1.77 µM (inactive) in assay [3]; 3.55 µM (inactive) in [4]; 2.76 µM (inactive) in [5]; 1.75 µM (inactive) in assay [6]. Also, the GI50 is 4.56 µM (inactive) in [7]; 5.33 µM (inactive) in assay [8]; 6.7 µM (inactive) in assay [9]; 2.67 µM (inactive) in assay [10]; 6.59 µM (inactive) in [11]; 2.56 µM (inactive) in assay [12]. Besides, the GI50 in [13] is 4.39 µM (inactive); in assay [14], 4.68 µM (inactive); in assay [15], 2.84 µM (inactive); in assay [16], 1.73 µM (inactive); in assay [17], 3.94 µM (inactive); in assay [18] it was 6.25 µM (inactive). Further, the GI50 in assay [19] is 5.55 µM (inactive).
For the compound `CC[C@]12C=CCN3CC[C@@]4(c5cc(Br)c(OC)cc5N(C)[C@H]4[C@@](O)(C(=O)NN)[C@@H]1O)[C@@H]32`, the GI50 in assay [1] was 59.4 µM (inactive); in [2] it was > 100 µM (inactive); in assay [3] it was 40.4 µM (inactive); in assay [4], 55.5 µM (inactive); in [5], > 100 µM (inactive); in assay [6], 93.5 µM (inactive). The GI50 in assay [7] was 68.1 µM (inactive); in assay [8], 65.5 µM (inactive); in assay [9] it was > 100 µM (inactive); in assay [10], 57.5 µM (inactive); in [11] it was 36.1 µM (inactive); in assay [12] it was 40.7 µM (inactive). For the same compound, the GI50 in assay [13] was 36.8 µM (inactive); in assay [14], > 100 µM (inactive); in [15], > 100 µM (inactive); in [16] it was 26.7 µM (inactive); in [17], 48.2 µM (inactive); in [18] it was 67.3 µM (inactive). Moreover, the GI50 in [19] is 18.2 µM (inactive).
`O=C1C=CC(=O)C(N(CCO)CCO)=C1.O=C1C=CC2(O)OCCN(CCO)C2=C1`: the GI50 in [1], in [2], in assay [3], in assay [4], in assay [5] and in assay [6] was > 100 µM (inactive) each time. For the same compound, the GI50 in [7], in [8], in [9], in assay [10], in [11] and in assay [12] was > 100 µM (inactive) throughout. Further, the GI50 in assay [13], in assay [14], in [15], in [16], in [17] and in assay [18] was > 100 µM (inactive) in each case. Besides, the GI50 in [19] was > 100 µM (inactive).
Consider `CC[C@@]1(O)C(=O)OCc2c1cc1n(c2=O)Cc2c-1nc1ccccc1c2/C=N/NC(=O)C[N+](C)(C)C`, for which the GI50 in assay [1] was 47.9 µM (inactive); in assay [2], 4.59 µM (inactive); in [3], 0.239 µM (active); in assay [4], 1 µM (active); in [5] it was 2.3 µM (inactive); in [6], 16.1 µM (inactive). The GI50 in assay [7] is 0.495 µM (active); in [8], 0.56 µM (active); in [9], 30.4 µM (inactive); in assay [10], 0.662 µM (active); in assay [11], 15.4 µM (inactive); in assay [12] it was 0.121 µM (active). For the same compound, the GI50 in [13] is 7.76 µM (inactive); in assay [14], 0.944 µM (active); in assay [15], 4.99 µM (inactive); in assay [16] it was 0.207 µM (active); in assay [17], 2.86 µM (inactive); in [18] it was 15.4 µM (inactive). Moreover, the GI50 in assay [19] was 0.525 µM (active).
`CCOC(=O)C1=C(C)N(Cc2ccc(Cl)cc2Cl)C2(O)C(OC)CC(=O)C3C(=O)N(c4ccccc4)C(=O)C132` (stereo not given): the GI50 in assay [1] was 3.4 µM (inactive); in assay [2], 2.08 µM (inactive); in assay [3], 0.244 µM (active); in assay [4], 2.09 µM (inactive); in assay [5] it was 1.39 µM (inactive); in [6], 2.63 µM (inactive). The GI50 in assay [7] is 3.46 µM (inactive); in [8] it was 4.43 µM (inactive); in [9], 2.41 µM (inactive); in assay [10], 1.47 µM (inactive); in assay [11], 1.61 µM (inactive); in [12], 3.13 µM (inactive). Further, the GI50 in [13] is 10.8 µM (inactive); in assay [14], 4.54 µM (inactive); in assay [15] it was 2.52 µM (inactive); in assay [16], 1.79 µM (inactive); in assay [17], 1.11 µM (active); in assay [18], 1.97 µM (inactive). In addition, in [19], the GI50 was < 0.01 µM (active).
Turning to `C[C@]12CC[C@H]3[C@@H](CC=C4C[C@@H](O)CC[C@@]43C)[C@@H]1C[C@H](N1CCOCC1)[C@@H]2O`, the GI50 in assay [1], in assay [2], in assay [3], in [4], in assay [5] and in [6] was > 100 µM (inactive) in each case. In addition, the GI50 in [7] is > 100 µM (inactive); in assay [8], > 100 µM (inactive); in [9] it was > 100 µM (inactive); in assay [10] it was 81.5 µM (inactive); in assay [11] it was 27.9 µM (inactive); in assay [12], > 100 µM (inactive). In addition, the GI50 was 89.3 µM (inactive) in [13]; > 100 µM (inactive) in [14]; > 100 µM (inactive) in assay [15]; > 100 µM (inactive) in [16]; 68.4 µM (inactive) in assay [17]; > 100 µM (inactive) in [18]. The GI50 in assay [19] is 28.4 µM (inactive).
